The source made the active and inactive calls. The rule behind the calls is not given here.
Tests used:
[1] = (§1) Oral bioavailability in Sprague-Dawley rat at 10 mg/kg by LC-MS/MS analysis; format: ADME, organism-based; conditions: Sprague-Dawley, in vivo
[2] = (§2) AUC in Sprague-Dawley rat at 10 mg/kg, po by LC-MS/MS analysis; format: ADME, organism-based; conditions: Sprague-Dawley, in vivo
[3] = Cmax in Sprague-Dawley rat at 10 mg/kg, po by LC-MS/MS analysis; format: ADME, organism-based; set-up: dose 10 mg/kg, route oral; conditions: in vivo
[4] = Volume of distribution at steady state in Sprague-Dawley rat at 5 mg/kg, iv by LC-MS/MS analysis; format: ADME, organism-based; conditions: in vivo, read-out: Vdss
[5] = Clearance in Sprague-Dawley rat at 5 mg/kg, iv by LC-MS/MS analysis; format: ADME, organism-based; conditions: in vivo
[6] = Terminal eliminational half life in Sprague-Dawley rat at 5 mg/kg, iv by LC-MS/MS analysis; format: ADME, organism-based; conditions: Sprague-Dawley, in vivo, read-out: beta t1/2 (converted)
[7] = Cytotoxicity against BRCA2-deficient human Capan1 cells; format: functional, cell-based, CAPAN-1; conditions: Homo sapiens, CAPAN-1
MRC5 = experiment: Cytotoxicity against human MRC5 cells; format: cell-based; conditions: Homo sapiens, MRC5
Mus musculus [8] = experiment: Decrease in PAR level in athymic nu/nu mouse xenografted with human MX1 cells at 100 mg/kg, po measured after 2 and 8 hrs by ELISA; format: functional, organism-based
MX1 [9] = experiment: Antitumor activity against BRCA1 deficient human MX1 cells xenografted in athymic nu/nu mouse at 100 mg/kg, po qd; format: functional, organism-based
LoVo [10] = tested on: LoVo
Rattus norvegicus [11] = experiment: as §1; format: ADME, organism-based; conditions: in vivo
Rattus norvegicus [12] = experiment: as §2; format: ADME, organism-based; conditions: in vivo
[13] = molecular target: Poly [ADP-ribose] polymerase 1 (Homo sapiens, UniProt P09874); experiment: Inhibition of human PARP1 using [3H]NAD as substrate after 1 min by microplate scintillation counting analysis
Poly [ADP-ribose] polymerase 1, sequence (P09874 whole entry): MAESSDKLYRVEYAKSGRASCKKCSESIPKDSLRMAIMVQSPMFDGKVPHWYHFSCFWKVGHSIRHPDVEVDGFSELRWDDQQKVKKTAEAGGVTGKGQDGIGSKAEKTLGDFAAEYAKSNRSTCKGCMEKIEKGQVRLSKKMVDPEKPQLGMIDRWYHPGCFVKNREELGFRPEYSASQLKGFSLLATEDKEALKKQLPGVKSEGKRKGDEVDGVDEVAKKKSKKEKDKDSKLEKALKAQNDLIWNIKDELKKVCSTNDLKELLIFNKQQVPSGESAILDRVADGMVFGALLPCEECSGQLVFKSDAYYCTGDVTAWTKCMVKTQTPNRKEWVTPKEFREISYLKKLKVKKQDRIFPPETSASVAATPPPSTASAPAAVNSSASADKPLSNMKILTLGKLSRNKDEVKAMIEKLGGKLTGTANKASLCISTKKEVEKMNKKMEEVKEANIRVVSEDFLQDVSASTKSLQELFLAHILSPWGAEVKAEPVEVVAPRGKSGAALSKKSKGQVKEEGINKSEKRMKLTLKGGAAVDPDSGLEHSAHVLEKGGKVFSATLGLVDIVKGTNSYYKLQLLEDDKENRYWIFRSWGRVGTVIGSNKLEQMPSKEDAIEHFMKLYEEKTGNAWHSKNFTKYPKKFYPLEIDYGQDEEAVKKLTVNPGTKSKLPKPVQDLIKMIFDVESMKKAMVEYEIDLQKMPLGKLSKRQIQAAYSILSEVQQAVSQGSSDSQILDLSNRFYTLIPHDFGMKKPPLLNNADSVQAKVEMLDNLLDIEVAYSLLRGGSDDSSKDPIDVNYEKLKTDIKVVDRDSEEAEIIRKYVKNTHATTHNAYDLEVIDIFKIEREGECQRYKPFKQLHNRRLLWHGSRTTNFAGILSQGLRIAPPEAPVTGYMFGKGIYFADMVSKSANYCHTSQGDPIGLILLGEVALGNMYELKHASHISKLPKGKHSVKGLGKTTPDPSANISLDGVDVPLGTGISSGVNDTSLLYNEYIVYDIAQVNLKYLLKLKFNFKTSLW

PARP 1, 2 and 3 = PARP 1, 2 and 3 (Homo sapiens, UniProt P09874+Q9Y6F1+Q9UGN5); experiment: Inhibition of PARP in human LoVo cells assessed as inhibition of poly(ADP)-ribose polymerization for 30 mins by fluorescence assay; format: cell-based
LoVo [14] = experiment: cells; conditions: Homo sapiens, 120 h
Mus musculus [15] = experiment: Decrease in PAR level in athymic nu/nu mouse xenografted with human MX1 cells at 1 mg/kg, po administered as single dose measured after 2 ,8 and 24 hrs by ELISA; format: functional, organism-based
Mus musculus [16] = experiment: Decrease in PAR level in athymic nu/nu mouse xenografted with human MX1 cells at 100 mg/kg, po measured after 24 hrs by ELISA; format: functional, organism-based
MX1 [17] = experiment: Antitumor activity against BRCA1 deficient human MX1 cells xenografted in athymic nu/nu mouse at 0.33 mg/kg, po qd administered for 28 days; format: functional, organism-based
MX1 [18] = experiment: Antitumor activity against BRCA1 deficient human MX1 cells xenografted in athymic nu/nu mouse at 0.1 mg/kg, po qd administered for 21 days; format: functional, organism-based
MX1 [19] = experiment: Antitumor activity against BRCA1 deficient human MX1 cells xenografted in athymic nu/nu mouse assessed as tumor growth inhibition at 0.165 mg/kg, po administered twice a day for 28 days; format: functional, organism-based
MX1 [20] = experiment: Potentiation of cisplatin-induced tumor growth inhibition of BRCA1 deficient human MX1 cells xenografted in po dosed athymic nu/nu mouse drug administered for 8 days and animals were treated with cisplatin at 6 mg/kg, ip on day 3; format: functional, organism-based
MX1 [21] = experiment: Potentiation of carboplatin-induced tumor growth inhibition of BRCA1 deficient human MX1 cells xenografted in athymic nu/nu mouse at 0.33 mg/kg po and animals were treated with carboplatin at 35 mg/kg, ip on day 1; format: functional, organism-based
[22] = Cmax in beagle dog at 0.01 mg/kg, po; format: ADME, organism-based, Canis lupus familiaris; set-up: dose 0.01 mg/kg, route oral; conditions: in vivo
Canis familiaris [23] = experiment: AUC(0 to infinity) in beagle dog at 0.01 mg/kg, po; format: ADME, organism-based, Canis lupus familiaris; set-up: dose 0.01 mg/kg, time infinity, route oral; conditions: in vivo
[24] = AUC(0 to time) in beagle dog at 0.01 mg/kg, po; format: ADME, organism-based, Canis lupus familiaris; conditions: in vivo
[25] = Volume of distribution at steady state in beagle dog at 0.025 mg/kg, iv; format: ADME, organism-based, Canis lupus familiaris; conditions: in vivo, read-out: Vdss
Canis familiaris [26] = experiment: Clast in beagle dog at 0.025 mg/kg, iv; format: ADME, organism-based, Canis lupus familiaris; conditions: in vivo
[27] = Half life in beagle dog at 0.025 mg/kg, iv; format: ADME, organism-based, Canis lupus familiaris; conditions: in vivo
[28] = Cmax in beagle dog at 0.025 mg/kg, iv; format: ADME, organism-based, Canis lupus familiaris; set-up: dose 0.025 mg/kg, route intravenous; conditions: in vivo
Canis familiaris [29] = experiment: AUC(0 to infinity) in beagle dog at 0.025 mg/kg, iv; format: ADME, organism-based, Canis lupus familiaris; set-up: dose 0.025 mg/kg, time infinity, route intravenous; conditions: in vivo
[30] = AUC(0 to t) in beagle dog at 0.025 mg/kg, iv; format: ADME, organism-based, Canis lupus familiaris; conditions: in vivo
[31] = Tmax in beagle dog at 0.01 mg/kg, po; format: ADME, organism-based, Canis lupus familiaris; conditions: in vivo
[32] = Half life in beagle dog at 0.01 mg/kg, po; format: ADME, organism-based, Canis lupus familiaris; conditions: in vivo
Canis familiaris [33] = experiment: Clast in beagle dog at 0.01 mg/kg, po; format: ADME, organism-based, Canis lupus familiaris; conditions: in vivo
[34] = Apparent oral volume of distribution in beagle dog at 0.01 mg/kg, po; format: ADME, organism-based, Canis lupus familiaris; conditions: in vivo
Canis familiaris [35] = experiment: Absolute oral bioavailability in beagle dog at 0.01 mg/kg; format: ADME, organism-based, Canis lupus familiaris; conditions: in vivo
[36] = Clearance in beagle dog at 0.025 mg/kg, iv; format: ADME, organism-based, Canis lupus familiaris; conditions: in vivo

O=C(c1cc(Cc2n[nH]c(=O)c3ccccc23)ccc1F)N1CCN(C(=O)C2CC2)CC1 [OLAPARIB]
bioavailability [1]: 11% | AUC [2]: 559 ng·h/mL | Cmax [3]: 437 ng/mL | Vd [4]: 0.83 L/kg | clearance [5]: 34.3 mL/min/kg | half-life [6]: 0.53 h | EC50 [7]: 259 nM | EC50 (MRC5): 5830 nM | inhibition (Mus musculus [8]): Active | Activity (MX1 [9]): inactive | GI50 (LoVo [10]): 237 nM

Cn1ccnc1[C@H]1c2n[nH]c(=O)c3cc(F)cc(c23)N[C@@H]1c1ccc(F)cc1
F (Rattus norvegicus [11]): 68% | AUC (Rattus norvegicus [12]): 1810 ng·h/mL | Cmax [3]: 3990 ng/mL | Vd [4]: 0.73 L/kg | half-life [6]: 2.1 h | IC50 [13]: 1.6 nM | EC50 (PARP 1, 2 and 3): 17.9 nM | EC50 [7]: 39 nM | GI50 (LoVo [14]): 25 nM

Cn1ncnc1[C@H]1c2n[nH]c(=O)c3cc(F)cc(c23)N[C@@H]1c1ccc(F)cc1
inhibition (Mus musculus [15]): Active | inhibition (Mus musculus [16]): inactive | Activity (MX1 [17]): Active | Activity (MX1 [18]): inactive | Activity (MX1 [19]): Active | Activity (MX1 [20]): Dose-dependent effect | Activity (MX1 [21]): Active

Cc1ccc(S(=O)(=O)O)cc1.Cn1ncnc1[C@H]1c2n[nH]c(=O)c3cc(F)cc(c23)N[C@@H]1c1ccc(F)cc1 [TALAZOPARIB TOSYLATE]
Cmax [22]: 68 ng/mL | AUC (Canis familiaris [23]): 611 ng·h/mL | AUC [24]: 600 ng·h/mL | Vd [25]: 4.67 L/kg | Clast (Canis familiaris [26]): 0.182 ng/mL | half-life [27]: 26.7 h | Cmax [28]: 18.9 ng/mL | AUC (Canis familiaris [29]): 135 ng·h/mL | AUC(0-t) [30]: 129 ng·h/mL | Tmax [31]: 4 h | half-life [32]: 24.4 h | Clast (Canis familiaris [33]): 0.313 ng/mL | Vd/F [34]: 5.81 L/kg | F (Canis familiaris [35]): 118.7% | clearance [36]: 3.3 mL/min/kg

From ChEMBL document CHEMBL3763037 (J Med Chem, 2016)
